Measurements: patent EP1472347B1, “IMPROVED PROTEIN EXPRESSION IN BACILLUS SUBTILIS” (Danisco US Inc., priority 2002, dated 2003)
No end group written: not given here.

Test system: aprE transcription
Test: β-galactosidase assay of the aprE-lacZ transcriptional fusion with synthetic Phr pentapeptides added to the medium
Type: cell-based, B. subtilis AL
Conditions: for aprE transcription (β-galactosidase activity, relative to wild-type): 10 µM pentapeptide in TY medium at 37°C, 4 hours after transition point between exponential and post-exponential growth, strain grown without Phr peptides (WT) set to 100%
Method: Figure 1 provides a bar graph depicting the different effects of Phr pentapeptides on aprE transcription. The transcription of the aprE-IacZ gene fusion in B. subtilis AL grown in TY medium at 37°C in the presence of 10 µM of one of the following pentapeptides (see Table II): PhrA (A), PhrC, (C), PhrE (E), PhrF (F), PhrG (G), PhrI (I) or PhrK (K), or in the absence of pentapeptides (-), was measured 4 hours after the transition point between the exponential and post-exponential growth phases. β-galactosidase activities were determined in Units per OD600 (% of WT; aprE-lacZ transcription level of the strain grown in the absence of Phr peptides [WT] is set to 100%).
Figure 2 provides a graph showing that PhrE stimulates aprE transcription. […] Zero time (T0) indicates the transition point between the exponential and post-exponential growth phases.
Overnight cultures were diluted to an optical density (OD600) of 0.1 in fresh TY medium, supplemented with Phr60 pentapeptide, as appropriate. Samples for OD600 readings and β-galactosidase activity determinations were taken at hourly intervals. The assay and the calculation of β-galactosidase activity (expressed as units per OD600) of the samples was performed as known In the art (See, Miller, Experiments In Molecular Genetics, Cold Spring Harbor Laboratory Press, NY, [1982]).
To analyze whether chromosomally-encoded Rap-Phr systems might be Involved in protease production, B. subtilis AL (bearing an aprE-lacZ transcriptional fusion), was grown in TY medium supplemented with synthetic PhrA, -C, -E, -F, -G, -H, -I, or -K pentapeptides (Table II).
In this Example, experiments conducted to further assess the effects of Rap-Phr systems on the transcription of aprE are described. The RapE-PhrE system was used as a model for two reasons. […] To determine the effect of PhrE on aprE transcription during growth, synthetic PhrE was added at two concentrations (1 and 10 µg/ml) to the medium of B. subtilis AL. […] It was also noted that in the latter case, aprE transcription seemed to be improved during all growth phases.

Substance	aprE transcription (β-galactosidase activity, relative to wild-type)	effect on aprE transcription compared with all Phr pentapeptides tested (Figure 1, 10 µM pentapeptide, post-exponential growth phase)	aprE transcription during growth (time course) (synthetic PhrE added at two concentrations (1 and 10 µg/ml) to the medium of B. subtilis AL, TY medium, 37°C, Figure 2)
ARNQT [PhrA]	100-120 % relative to wild-type		
DRVGA [PhrI]	100-120 % relative to wild-type		
EKMIG [PhrG]	100-120 % relative to wild-type		
ERPVG [PhrK]	100-120 % relative to wild-type		
SRNVT [PhrE]	~135 % relative to wild-type	strongest positive effect on aprE transcription	improved by the addition of PhrE only during the post-exponential growth phase in a PhrE concentration-dependent manner
QRGMI [PhrF]	~135 % relative to wild-type		
ERGMT [PhrC]	~60 % relative to wild-type		
